Test results as given in patent publication EP3628664A1, “IRREVERSIBLE INHIBITORS OF KRAS G12C MUTANT” (Max-Planck-Gesellschaft zur Förderung der Wissenschaften …, priority 2018, dated 2020).

Columns and labels:
KRas G12C [1] = target: T1, KRas G12C (Homo sapiens, UniProt P01116, G12C); assay: Tethering assay: covalent adduct formation determined by MALDI; type: binding; conditions: 20 mM HEPES, pH 7.5, 150 mM NaCl, room temperature; for Covalent adduct formation 30 min: after 30 min; for Covalent adduct formation 24h: after 24h; for Covalent adduct formation 48h: after 48h
Experimental: Protein was incubated with the compounds in 20 mM HEPES, pH 7.5, 150 mM NaCl at room temperature for the specific times. For MALDI experiments, a saturated solution of sinapic acid (Aldrich) in H2O (0.1% TFA) / ACN (2:1) was used as matrix. 1 µL of the samples was mixed with 5 µL of matrix, and 1 µL of this mixture was placed on an MTP 384 ground steel target plate and dried in air. Mass spectra were obtained over the m/z range 17.000-21.000 using a Bruker UltrafleXtreme TOF/TOF mass spectrometer. […]

KRas G12C [2] = target: T1, KRas G12C; assay: Competitive LC-MS experiment with KRas G12C in the presence of glutathione; type: binding
Experimental: In competitive experiments it was shown that the inventive compounds bind selectively to the KRas G12C mutant in the presence of glutathione (GSH).
Cell indices ±s.d. were measured in technical triplicates and biological duplicates. Staurosporin was used as control compound.

[3] = LC-MS stability of compound with glutathione in PBS buffer at 37 °C; type: physicochemical
[4] = Hydrolysis stability in HEPES buffer (LC-MS); type: physicochemical; conditions: HEPES buffer (pH 7.5), 37 °C, 24 hours
Experimental: Compound 4 was dissolved in HEPES (4-(2-hydroxyethyl)-1-piperazineethanesulfonic acid) buffer (pH 7.5) at 37 °C for 24 hours.

Covalent adduct formation 30 min (KRas G12C [1])	Covalent adduct formation 24h (KRas G12C [1])	Covalent adduct formation 48h (KRas G12C [1])	covalent adduct formation with KRas G12C (KRas G12C [2]; in the presence of glutathione, after 1 hour)	incubation time after which compound remains unreacted ([3]; in the presence of glutathione)	formation of the glutathione-4 covalent adduct ([3]; mixture with glutathione)	stability ([3]; mixture with glutathione, up to 24 hours)	remaining at 18 h ([3]; pH 7.5, with glutathione, after 18 hours incubation time, read-out: compound remains unreacted)	stability against hydrolysis [4]	SMILES	glutathione-4 adduct formation (KRas G12C [2]; KRas G12C, compound 4 and glutathione, up to 5 hours)
+++ (covalent labeling > 90%)	+++ (covalent labeling > 90%)	+++ (covalent labeling > 90%)	–	–	–	–	–	–	CC1(c2cc(NCC(=O)N3CCN(C(=O)c4cnc(Cl)nc4)CC3)c(O)cc2Cl)CC1 [Compound 5, 2-((4-chloro-2-hydroxy-5-(1-methylcyclopropyl)phenyl)amino)-1-(4-(2-chloropyrimidine-5-carbonyl)piperazin-1-yl)ethan-1-one]	–
+++ (covalent labeling > 90%)	+++ (covalent labeling > 90%)	+++ (covalent labeling > 90%)	–	–	–	–	–	–	CC(C)(C)c1ccc(O)c(NCC(=O)N2CCN(C(=O)c3cnc(Cl)nc3)CC2)c1 [Compound 1, 2-((5-(tert-butyl)-2-hydroxyphenyl)amino)-1-(4-(2-chloropyrimidine-5-carbonyl)piperazin-1-yl)ethan-1-one]	–
+++ (covalent labeling > 90%)	+++ (covalent labeling > 90%)	+++ (covalent labeling > 90%)	–	–	–	–	–	–	Cc1cc(C)c(NCC(=O)N2CCN(C(=O)c3cnc(Cl)nc3)CC2)c(C)c1 [Compound 9, 1-(4-(2-chloropyrimidine-5-carbonyl)piperazin-1-yl)-2-(mesitylamino)ethan-1-one]	–
+++ (covalent labeling > 90%)	+++ (covalent labeling > 90%)	+++ (covalent labeling > 90%)	–	–	–	–	–	–	CC(C)(C)c1cc(NCC(=O)N2CCN(C(=O)c3cnc(Cl)nc3)CC2)c(O)cc1Cl [Compound 3, 2-((5-(tert-butyl)-4-chloro-2-hydroxyphenyl)amino)-1-(4-(2-chloropyrimidine-5-carbonyl)piperazin-1-yl)ethan-1-one]	–
+++ (covalent labeling > 90%)	+++ (covalent labeling > 90%)	+++ (covalent labeling > 90%)	–	–	–	–	–	–	CCC(C)(C)c1cc(NCC(=O)N2CCN(S(=O)(=O)c3cnc(Cl)nc3)CC2)c(O)cc1Cl [Compound 7, 2-((4-chloro-2-hydroxy-5-(tert-pentyl)phenyl)amino)-1-(4-((2-chloropyrimidin-5-yl)sulfonyl)piperazin-1-yl)ethan-1-one]	–
+++ (covalent labeling > 90%)	+++ (covalent labeling > 90%)	+++ (covalent labeling > 90%)	Nearly complete	more than 18 hours	occurs slowly	good stability	~50%	stable against hydrolysis	CCC(C)(C)c1cc(NCC(=O)N2CCN(C(=O)c3cnc(Cl)nc3)CC2)c(O)cc1Cl [Compound 4, 2-((4-chloro-2-hydroxy-5-(tert-pentyl)phenyl)amino)-1-(4-(2-chloropyrimidine-5-carbonyl)piperazin-1-yl)ethan-1-one]	No glutathione-4 adduct formation could be observed
+ (5 < covalent labeling ≤ 50)	++ (50 < covalent labeling ≤ 90)	+++ (covalent labeling > 90%)	–	–	–	–	–	–	CC(C)(C)c1cc(NCC(=O)N2CCN(C(=O)c3cnc(Cl)cn3)CC2)c(O)cc1Cl [Compound 8, 2-((5-(tert-butyl)-4-chloro-2-hydroxyphenyl)amino)-1-(4-(5-chloropyrazine-2-carbonyl)piperazin-1-yl)ethan-1-one]	–
+++ (covalent labeling > 90%)	+++ (covalent labeling > 90%)	+++ (covalent labeling > 90%)	–	–	–	–	–	–	CCC(C)(C)c1ccc(O)c(NCC(=O)N2CCN(C(=O)c3cnc(Cl)nc3)CC2)c1 [Compound 2, 1-(4-(2-chloropyrimidine-5-carbonyl)piperazin-1-yl)-2-((2-hydroxy-5-(tert-pentyl)phenyl)amino)ethan-1-one]	–
+ (5 < covalent labeling ≤ 50)	++ (50 < covalent labeling ≤ 90)	+++ (covalent labeling > 90%)	–	–	–	–	–	–	CCC(C)(C)c1cc(NCC(=O)N2CCN(C(=O)c3ccnc(Cl)n3)CC2)c(O)cc1Cl [Compound 6, 2-((4-chloro-2-hydroxy-5-(tert-pentyl)phenyl)amino)-1-(4-(2-chloropyrimidine-4-carbonyl)piperazin-1-yl)ethan-1-one]	–
